Experimental data published in patent publication US20120088772A1, “NOVEL PHARMACEUTICAL COMPOSITION FOR PREVENTION AND/OR TREATMENT OF ATTENTION DEFICIT/HYPERACTIVITY DISORDER” (ASTELLAS PHARMA INC., priority 2009, published 2012).
Where a name gives a salt, the structure may show the parent alone.

How the values were obtained:
[1] = system: spontaneously hypertensive stroke-prone rats (SHRSP); test: Passive avoidance response test with SHRSP (attention deficit/hyperactivity disorder model); type: in vivo, rat; settings: for Minimum effective dose: 30 min before test; for Effect on cumulative entry latency of SHRSP: sum of entry latency of 2nd to 5th trial, compared with solvent group
Experimental: Verification of the therapeutic effect on attention deficit/hyperactivity disorder was carried out using spontaneously hypertensive stroke-prone rats (SHRSP). […] The method of Fox et al. (Fox, G. B. et al., Behay. Brain. Res., 131: 151-161, 2002) was partially modified, and the drug action on attention deficit/hyperactivity disorder was verified using a passive avoidance response test with SHRSP. That is, a solvent (vehicle), or dilutions prepared by diluting methylphenidate, compound (1), compound (2), compound (3), compound (4), and compound (5), with a solvent at multiple concentrations were administered to the rats in each group. Methylphenidate was subcutaneously administered, and compounds (1) to (5) were orally administered. As the solvent, physiological saline was used for methylphenidate and a 0.5% aqueous solution of methylcellulose was used for compounds (1) to (5). After 30 minutes of each drug administration, rats were placed in the bright room of the passive avoidance response measurement apparatus, and the time required for the rat to enter the dark room (entry latency) was measured. The longest time for measurement was 180 seconds. When rats entered in the dark room, a very weak electric current was forced to flow from a foot grid in the dark room. This trial was repeated five times, and the sum of the entry latency from 2nd time to 5th time (cumulative entry latency) was adopted as an indicator of the therapeutic effect on attention deficit/hyperactivity disorder. The test of significance difference was carried out between the solvent administered group and the drug administered groups, using Dunnett's test.

[2] = target: T1, BEC1 potassium channel (Homo sapiens, UniProt Q9ULD8); test: BEC1 inhibitory activity by 86Rb ion release from BEC1 expressing cells; type: cell-based; set-up: expressed in transfected cells; settings: 86Rb release, BEC1 stably expressing CHO (dhfr-deficient) cells, 100 mM KCl stimulation; read-out: BEC1 Inhibittory Activity IC50
T1 sequence (Q9ULD8 1-1083): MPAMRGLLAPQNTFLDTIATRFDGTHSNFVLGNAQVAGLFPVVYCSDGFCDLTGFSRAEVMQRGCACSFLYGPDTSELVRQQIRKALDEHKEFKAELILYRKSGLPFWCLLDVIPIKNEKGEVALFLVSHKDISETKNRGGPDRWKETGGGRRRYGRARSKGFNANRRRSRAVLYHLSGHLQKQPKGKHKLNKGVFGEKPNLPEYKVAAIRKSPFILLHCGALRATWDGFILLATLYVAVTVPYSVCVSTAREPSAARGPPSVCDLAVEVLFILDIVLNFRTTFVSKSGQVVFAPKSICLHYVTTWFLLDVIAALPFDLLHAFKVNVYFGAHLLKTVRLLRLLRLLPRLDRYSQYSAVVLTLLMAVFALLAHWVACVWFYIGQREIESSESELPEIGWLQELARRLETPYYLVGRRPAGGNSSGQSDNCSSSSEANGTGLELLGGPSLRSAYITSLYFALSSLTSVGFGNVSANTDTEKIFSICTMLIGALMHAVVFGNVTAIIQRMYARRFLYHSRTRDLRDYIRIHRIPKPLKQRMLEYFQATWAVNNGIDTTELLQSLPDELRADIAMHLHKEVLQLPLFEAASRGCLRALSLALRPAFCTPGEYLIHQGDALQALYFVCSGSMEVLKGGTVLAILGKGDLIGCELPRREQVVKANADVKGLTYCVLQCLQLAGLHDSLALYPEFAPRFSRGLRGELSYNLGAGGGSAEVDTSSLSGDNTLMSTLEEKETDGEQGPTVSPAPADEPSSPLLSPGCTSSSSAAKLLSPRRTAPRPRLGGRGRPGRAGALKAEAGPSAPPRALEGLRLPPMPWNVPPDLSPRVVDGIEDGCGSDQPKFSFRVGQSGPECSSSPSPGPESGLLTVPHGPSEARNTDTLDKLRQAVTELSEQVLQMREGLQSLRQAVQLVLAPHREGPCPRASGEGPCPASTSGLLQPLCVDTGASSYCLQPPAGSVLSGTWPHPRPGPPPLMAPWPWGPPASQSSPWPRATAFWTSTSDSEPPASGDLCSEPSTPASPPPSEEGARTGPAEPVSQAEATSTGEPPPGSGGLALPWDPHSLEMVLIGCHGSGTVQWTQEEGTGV
Experimental: Method for measuring BEC1 inhibitory activity of compound utilizing 86Rb ion release amount as indicator
The channel activity of BEC1 was measured according to the method described in U.S. Pat. No. 6,326,168 utilizing the release of the ions of radioactive isotope 86Rb from BEC1 expressing cells as an indicator. Specifically, when BEC1 expressing cells which had taken in 86Rb ions were stimulated with 100 mM KCl, the radioactivity released from the cells was designated as the channel activity of BEC1. 86Rb ions were incorporated into cells by culturing (3 hours, 37° C.) BEC1 stably expressing cells in the presence of 86RbCl (0.5 μCi/ml), and the unincorporated 86Rb ions were removed by washing the cells three times with HEPES buffered physiological saline (pH 7.4, 2.5 mM KCl). […]
The Cherenkov radioactivities of the extracellular fluid and the cell lysate were respectively measured, and the sum was designated as the total radioactivity. The release amount of 86Rb ions was expressed as the percentage of the radioactivity of the extracellular fluid to the total radiation activity. […] The inhibitory action of the compound was indicated as the IC50 value determined from the inhibition % (that is, (control value—test value)×100/(control value—blank value)). […]

[3] = target: T1, BEC1 potassium channel; settings: background statement; cited from earlier work
[4] = oral, smallest dose giving significantly longer cumulative entry latency than solvent group (Dunnett's test)

SMILES	Minimum effective dose [1, 4] [mg/kg p.o.]	Effect on cumulative entry latency of SHRSP [1]	further results
Fc1ccc(Nc2nc(NCc3ncccn3)nc(Nc3ccc(F)cc3)n2)cc1 (as salt: HCl) [(2), N,N′-bis(4-fluorophenyl)-N″-(pyrimidin-2-ylmethyl)-1,3,5-triazine-2,4,6-triamine]			melting point: 183 to 186 °C
Fc1ccc(Nc2nc(NCc3ncccn3)nc(Nc3ccc(F)cc3)n2)cc1 [(2), N,N′-bis(4-fluorophenyl)-N″-(pyrimidin-2-ylmethyl)-1,3,5-triazine-2,4,6-triamine]	0.03	prolonged the cumulative entry latency	
COc1ccc(Nc2nc(NCc3ncccn3)nc(Nc3ccc(F)cc3)n2)cc1 [(3), N-(4-fluorophenyl)-N′-(4-methoxyphenyl)-N″-(pyrimidin-2-ylmethyl)-1,3,5-triazine-2,4,6-triamine]	0.3	prolonged the cumulative entry latency	
Fc1ccc(Nc2nc(NCc3ccncn3)nc(Nc3ccc(F)cc3)n2)cc1 [(4), N,N′-bis(4-fluorophenyl)-N″-(pyrimidin-4-ylmethyl)-1,3,5-triazine-2,4,6-triamine]	0.03	prolonged the cumulative entry latency	
Cl.Nc1nc(Nc2ccc(F)cc2)nc(N(Cc2ccnc(F)c2)c2ccccc2)n1 [(5), N-(4-fluorophenyl)-N′-[(2-fluoro-4-pyridyl)methyl]-N′-phenyl-1,3,5-triazine-2,4,6-triamine hydrochloride]	3	prolonged the cumulative entry latency	IC50 [2]: 85 nM
Fc1ccc(Nc2nc(NCc3ncccn3)nc(Nc3ccccc3)n2)cc1 [Compound (1), N-(4-fluorophenyl)-N′-phenyl-N″-(pyrimidin-2-ylmethyl)-1,3,5-triazine-2,4,6-triamine]	0.1	prolonged the cumulative entry latency	
COC(=O)C(c1ccccc1)C1CCCCN1 (stereo not shown) [Methylphenidate, methylphenidate, reference compound]		prolonged the cumulative entry latency	Minimum effective dose ([1]; subcutaneous (sc), smallest dose giving significantly longer cumulative entry latency than solvent group): 0.1(sc) mg/kg
C=C[C@H]1C[N@@]2CC[C@H]1C[C@@H]2[C@@H](O)c1ccnc2ccc(OC)cc12 [quinidine]			Inhibition of BEC1 potassium channels [3]: do not inhibit
CC[N+](CC)(CC)CC [tetraethylammonium]			Inhibition of BEC1 potassium channels [3]: do not inhibit
